Assay results taken from PubChem BioAssay AID330 (DTP/NCI, 2004).
Values joined by “and” are separate entries in the source; they are usually repeats but may differ in a detail not shown here. Equal values may be shown once. Toxic doses and inconclusive results are not listed.

System: P388 leukemia ip, CD2F1 mice, survival T/C
Assay: NCI In Vivo Anticancer Drug Screen. Data for tumor model P388 Leukemia (intraperitoneal) in CD2F1 (CDF1) mice
Conditions: endpoint: median survival time, higher = longer survival
In short: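 Mice carrying the transplanted tumor received test compound or vehicle. Survival was recorded in each group, and the value is the treated-group measurement divided by that of the vehicle-treated control group.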

[1] = dose: 100.0 mg/kg/injection, schedule: Q04DX003 (ip), vehicle: Klucel (hydroxypropylcellulose) (HPC)
[2] = dose: 200.0 mg/kg/injection, schedule: Q04DX003 (ip), vehicle: Klucel (hydroxypropylcellulose) (HPC)
[3] = dose: 100.0 mg/kg/injection, schedule: Q04DX002 (ip), vehicle: saline with Tween-80
[4] = dose: 60.0 mg/kg/injection, schedule: Q01DX005 (ip), vehicle: saline with Tween-80
[5] = dose: 120.0 mg/kg/injection, schedule: Q01DX005 (ip), vehicle: saline with Tween-80
[6] = dose: 240.0 mg/kg/injection, schedule: Q01DX005 (ip), vehicle: saline with Tween-80
[7] = dose: 12.5 mg/kg/injection, schedule: Q01DX009 (ip), vehicle: saline with Tween-80
[8] = dose: 25.0 mg/kg/injection, schedule: Q01DX009 (ip), vehicle: saline with Tween-80
[9] = dose: 50.0 mg/kg/injection, schedule: Q01DX009 (ip), vehicle: saline with Tween-80
[10] = dose: 50.0 mg/kg/injection, schedule: Q01DX005 (ip), vehicle: saline with Tween-80
[11] = dose: 100.0 mg/kg/injection, schedule: Q01DX005 (ip), vehicle: saline with Tween-80
[12] = dose: 200.0 mg/kg/injection, schedule: Q01DX005 (ip), vehicle: saline with Tween-80
[13] = dose: 25.0 mg/kg/injection, schedule: Q01DX009 (ip), vehicle: saline
[14] = dose: 50.0 mg/kg/injection, schedule: Q01DX009 (ip), vehicle: saline
[15] = dose: 100.0 mg/kg/injection, schedule: Q01DX009 (ip), vehicle: saline
[16] = dose: 12.5 mg/kg/injection, schedule: Q01DX005 (ip), vehicle: saline with Tween-80
[17] = dose: 25.0 mg/kg/injection, schedule: Q01DX005 (ip), vehicle: saline with Tween-80

S=C(Nc1ccc(I)cc1)SCc1ccc2c(c1)OCO2
T/C (dose: 50.0 mg/kg/injection, schedule: Q01DX009 (ip), vehicle: suspension in saline): 110 % of control
T/C (dose: 100.0 mg/kg/injection, schedule: Q01DX009 (ip), vehicle: suspension in saline): 104 % of control
T/C (dose: 200.0 mg/kg/injection, schedule: Q01DX009 (ip), vehicle: suspension in saline): 101 % of control

CN(C)c1nc(-c2ccccc2)cc(=O)[nH]1
T/C (dose: 15.0 mg/kg/injection, schedule: Q01DX009 (ip), vehicle: saline with Tween-80): 102 % of control
T/C (dose: 30.0 mg/kg/injection, schedule: Q01DX009 (ip), vehicle: saline with Tween-80): 108 % of control
T/C (dose: 50.0 mg/kg/injection, schedule: Q04DX003 (ip), vehicle: Klucel (hydroxypropylcellulose) (HPC)): 98 % of control
T/C (dose: 60.0 mg/kg/injection, schedule: Q01DX009 (ip), vehicle: saline with Tween-80): 100 % of control
T/C [1]: 94 % of control
T/C [2]: 94 % of control
T/C (dose: 400.0 mg/kg/injection, schedule: Q04DX003 (ip), vehicle: Klucel (hydroxypropylcellulose) (HPC)): 92 % of control

COc1cc2cc[n+](C)c(Cc3ccc(Oc4cc(Cc5c6cc(OC)c(OC)cc6cc[n+]5C)ccc4OC)cc3)c2cc1OC
T/C (dose: 2.5 mg/kg/injection, schedule: Q01DX009 (ip), vehicle: saline): 98 % of control
T/C (dose: 5.0 mg/kg/injection, schedule: Q01DX009 (ip), vehicle: saline): 99 % of control
T/C (dose: 10.0 mg/kg/injection, schedule: Q01DX009 (ip), vehicle: saline): 88 % of control

CCCCCCCC/C=C\C(O)=C1\C(=O)NC(CCCNC(=O)OCc2ccccc2)C1=O (configuration not stated)
T/C (dose: 25.0 mg/kg/injection, schedule: Q04DX002 (ip), vehicle: saline with Tween-80): 100 % of control
T/C (dose: 50.0 mg/kg/injection, schedule: Q04DX002 (ip), vehicle: saline with Tween-80): 100 % of control
T/C [3]: 86 % of control
T/C (dose: 200.0 mg/kg/injection, schedule: Q04DX002 (ip), vehicle: saline with Tween-80): 91 % of control
T/C (dose: 400.0 mg/kg/injection, schedule: Q04DX002 (ip), vehicle: saline with Tween-80): 103 % of control

COc1ccc(N2C(=O)c3ccc4c5ccc6c7c(ccc(c8ccc(c3c48)C2=O)c75)C(=O)N(C)C6=O)cc1
T/C (dose: 50.0 mg/kg/injection, schedule: Q01DX005 (ip), vehicle: Klucel (hydroxypropylcellulose) (HPC)): 97 % of control
T/C (dose: 100.0 mg/kg/injection, schedule: Q01DX005 (ip), vehicle: Klucel (hydroxypropylcellulose) (HPC)): 98 % of control
T/C (dose: 200.0 mg/kg/injection, schedule: Q01DX005 (ip), vehicle: Klucel (hydroxypropylcellulose) (HPC)): 105 % of control

COC(OC)C(=O)OC(C)(C)C
T/C [4]: 103 % of control
T/C [5]: 100 % of control
T/C [6]: 101 % of control

COc1ccc2c(c1)CCC1=C2N=CN2CCN=C12
T/C [3]: 102 % of control

COc1ccc(N=NS(=O)(=O)O)cn1
T/C (dose: 3.12 mg/kg/injection, schedule: Q01DX009 (ip), vehicle: saline with Tween-80): 93 % of control
T/C (dose: 6.25 mg/kg/injection, schedule: Q01DX009 (ip), vehicle: saline with Tween-80): 101 % of control
T/C [7]: 108 % of control
T/C [8]: 97 % of control
T/C [9]: 99 % of control and 97 % of control
T/C (dose: 100.0 mg/kg/injection, schedule: Q01DX009 (ip), vehicle: saline with Tween-80): 94 % of control
T/C (dose: 200.0 mg/kg/injection, schedule: Q01DX009 (ip), vehicle: saline with Tween-80): 106 % of control
T/C (dose: 400.0 mg/kg/injection, schedule: Q01DX009 (ip), vehicle: saline with Tween-80): 101 % of control

O=S(=O)(Nc1nccs1)c1ccc(Nc2c3ccc(Cl)cc3nc3ncccc23)cc1
T/C [10]: 105 % of control
T/C [11]: 102 % of control
T/C [12]: 98 % of control

COc1ccc(-c2c(-c3ccccc3)c(=O)oc3cc(OC)ccc23)cc1
T/C [4]: 91 % of control
T/C [5]: 87 % of control and 88 % of control

CCOC(=O)CC(C(=O)OCC)C(=O)OCC
T/C [13]: 97 % of control
T/C [14]: 100 % of control
T/C [15]: 103 % of control
T/C (dose: 200.0 mg/kg/injection, schedule: Q01DX009 (ip), vehicle: saline): 106 % of control

O=[n+]1c2ccccc2n([O-])c2ccccc21.[Cl][Ni][Cl]
T/C (dose: 6.25 mg/kg/injection, schedule: Q04DX003 (ip), vehicle: saline with Tween-80): 102 % of control and 94 % of control
T/C (dose: 12.5 mg/kg/injection, schedule: Q04DX003 (ip), vehicle: saline with Tween-80): 111 % of control and 121 % of control
T/C (dose: 25.0 mg/kg/injection, schedule: Q04DX003 (ip), vehicle: saline with Tween-80): 115 % of control and 121 % of control
T/C (dose: 50.0 mg/kg/injection, schedule: Q04DX003 (ip), vehicle: saline with Tween-80): 114 % of control

CCP(CC)(c1ccccc1)=c1c(=O)c(Cl)c(Cl)c(=O)c1=O
T/C (dose: 6.25 mg/kg/injection, schedule: Q01DX005 (ip), vehicle: Klucel (hydroxypropylcellulose) (HPC)): 100 % of control
T/C (dose: 12.5 mg/kg/injection, schedule: Q01DX005 (ip), vehicle: Klucel (hydroxypropylcellulose) (HPC)): 102 % of control
T/C (dose: 25.0 mg/kg/injection, schedule: Q01DX005 (ip), vehicle: Klucel (hydroxypropylcellulose) (HPC)): 100 % of control

Clc1cc2c(nn1)-c1ccccc1C2
T/C [10]: 100 % of control
T/C [11]: 105 % of control
T/C [12]: 100 % of control

CC[N+](CC)(CC)CCOc1nc(OCC[N+](CC)(CC)CC)nc(OCC[N+](CC)(CC)CC)n1
T/C (dose: 6.25 mg/kg/injection, schedule: Q01DX009 (ip), vehicle: saline): 100 % of control
T/C (dose: 12.5 mg/kg/injection, schedule: Q01DX009 (ip), vehicle: saline): 100 % of control
T/C [13]: 100 % of control

C/C(=C1\C(=O)Oc2c(ccc3ccccc23)C1=O)c1ccc2ccccc2c1O
T/C [16]: 99 % of control
T/C [17]: 99 % of control
T/C [10]: 86 % of control and 97 % of control

CCOC(=O)c1nc(SC)n(C)c1C(=O)OCC
T/C [4]: 100 % of control
T/C [5]: 100 % of control
T/C [6]: 105 % of control

C=CC12COC(=O)CC1CCC(=O)C2 (configuration not stated)
T/C [1]: 99 % of control
T/C [2]: 100 % of control

CC1OC(C)C(O)C2=C1C(=O)c1ccccc1C2=O (configuration not stated)
T/C [4]: 100 % of control
T/C [5]: 100 % of control

COC(=O)C(F)C(Br)C(=O)OC (configuration not stated)
T/C [7]: 111 % of control and 103 % of control
T/C [8]: 112 % of control and 105 % of control
T/C [9]: 123 % of control and 114 % of control and 115 % of control

NC(Cc1ccccc1)C(=O)OCN1C(=O)C2C3C=CC(C2C1=O)C1C2C(=O)N(COC(=O)C(N)Cc4ccccc4)C(=O)C2C31 (configuration not stated)
T/C (dose: 12.5 mg/kg/injection, schedule: Q01DX009 (ip), vehicle: water): 103 % of control
T/C [13]: 100 % of control and 102 % of control
T/C (dose: 25.0 mg/kg/injection, schedule: Q01DX009 (ip), vehicle: water): 106 % of control and 113 % of control and 103 % of control
T/C [14]: 110 % of control
T/C (dose: 50.0 mg/kg/injection, schedule: Q01DX009 (ip), vehicle: water): 109 % of control and 124 % of control
T/C [15]: 184 % of control
T/C (dose: 100.0 mg/kg/injection, schedule: Q01DX009 (ip), vehicle: water): 189 % of control and 197 % of control
T/C (dose: 150.0 mg/kg/injection, schedule: Q01DX009 (ip), vehicle: saline): 192 % of control

CCN=C1C=CC(=C(c2ccc(N(CC)CC)cc2)c2ccc(N(CC)CC)cc2)c2ccccc21
T/C (dose: 6.25 mg/kg/injection, schedule: Q01DX005 (ip), vehicle: saline with Tween-80): 110 % of control and 113 % of control
T/C [16]: 118 % of control (2×) and 119 % of control
T/C [17]: 115 % of control

CCOC(=O)C(Cc1ccccc1)P(=O)(OCC)OCC (configuration not stated)
T/C (dose: 100.0 mg/kg/injection, schedule: Q01DX001 (ip), vehicle: saline): 95 % of control
T/C (dose: 200.0 mg/kg/injection, schedule: Q01DX001 (ip), vehicle: saline): 100 % of control
T/C (dose: 400.0 mg/kg/injection, schedule: Q01DX001 (ip), vehicle: saline): 91 % of control
